# Measurements taken from ChEMBL document CHEMBL5223130, “Targeting SARS-CoV-2 Main Protease for Treatment of COVID-19: Covalent Inhibitors Structure-Activity Relationship Insights and Evolution Perspectives” (J Med Chem, 2022).
# pEC50, pIC50, pKi: −log10 of the molar value. Square brackets hold non-standard residues; d marks the D form. Peptide text beside a SMILES is read from it. Nle = CCCC[C@H](N)C(=O)O
# Key:
# [1] = Selectivity index, ratio of EC50 for antiviral activity against SARS-CoV-2 to […]; assay type: toxicity
# SARS-CoV-2 [2] = assay type: functional, organism-based, Vero E6; conditions: Severe acute respiratory syndrome coronavirus 2, USA-WA1/2020, Vero C1008, 72 h
# [3] = target: T1, Replicase polyprotein 1ab (Severe acute respiratory syndrome coronavirus 2, UniProt P0DTD1); test: Binding affinity to C-terminal His-tagged SARS-CoV-2 BetaCoV/Wuhan/WIV04/2019 Main protease expressed in Escherichia coli assessed as inhibition constant
# [4] = target: T1, Replicase polyprotein 1ab; test: Binding affinity to SARS-CoV-2 Main protease assessed as inhibition constant
# SARS-CoV-2 [5] = test: Antiviral activity against SARS-CoV-2 USA-WA1/2020 infected in African green monkey Vero 76 cells assessed as reduction in virus induced cytopathic effect measured after 3 days by secondary viral yield reduction assay; assay type: functional, organism-based; conditions: Severe acute respiratory syndrome coronavirus 2, USA-WA1/2020, Vero 76, 72 h
# SARS-CoV-2 [6] = assay type: functional, organism-based, Vero E6; conditions: Severe acute respiratory syndrome coronavirus 2, 2019-nCoV/USA_WA1/2020, Vero C1008, 72 h
# [7] = target: T1, Replicase polyprotein 1ab; test: Inhibition of SARS-CoV-2 Main protease
# [8] = target: T1, Replicase polyprotein 1ab; test: Inhibition of recombinant SARS-CoV-2 Main protease expressed in Escherichia coli BL21 (DE3) cells using Mca-AVLQSGFR-K(Dnp)K as substrate preincubated for 15 mins followed by substrate addition by FRET assay
# SARS-CoV-2 [9] = assay type: functional, organism-based, Vero E6; conditions: Severe acute respiratory syndrome coronavirus 2, nCoV-2019BetaCoV/Wuhan/WIV04/2019, Vero C1008
# [10] = target: T1, Replicase polyprotein 1ab; test: Inhibition of SARS-CoV-2 Main protease by FRET assay
# SARS-CoV-2 [11] = assay type: functional, organism-based; conditions: Severe acute respiratory syndrome coronavirus 2, A549, 96 h
# SARS-CoV-2 [12] = assay type: functional, organism-based; conditions: Severe acute respiratory syndrome coronavirus 2, Caco-2, 72 h
# Procathepsin L = Procathepsin L (Homo sapiens, UniProt P07711); test: Inhibition of human Cathepsin L using Z-Phe-Arg-AMC as fluorogenic substrate incubated for 30 mins followed by substrate addition by fluorescence based analysis
# SARS-CoV-2 [13] = assay type: functional, organism-based; conditions: Severe acute respiratory syndrome coronavirus 2, Caco-2
# [14] = target: T1, Replicase polyprotein 1ab; test: Inhibition of SARS-CoV-2 Main protease using Dabcyl-KTSAVLQSGFRKME-Edans as substrate preincubated for 30 mins followed by substrate addition and measured after 4 hrs by fluorescence based assay
# SARS-CoV-2 [15] = assay type: functional, organism-based, Vero E6; conditions: Severe acute respiratory syndrome coronavirus 2, WK-521, Vero C1008, 72 h
# SARS-CoV-2 [16] = test: Antiviral activity against SARS-CoV-2 2019-nCoV/USA_WA1/2020 infected in human Huh-7 cells expressing ACE2 measured 24 hrs post infection; assay type: functional, organism-based; conditions: Severe acute respiratory syndrome coronavirus 2, 2019-nCoV/USA_WA1/2020, Huh-7, 24 h
# [17] = target: T1, Replicase polyprotein 1ab; test: Inhibition of C-terminal His-tagged SARS-CoV-2 BetaCoV/Wuhan/WIV04/2019 Main protease expressed in Escherichia coli using Dabcyl-KTSAVLQ/SGFRKME(Edans) as substrate by FRET assay
# SARS-CoV-2 [18] = test: microbe, parasite or virus in culture; conditions: Severe acute respiratory syndrome coronavirus 2
# Chain of Procathepsin L (P07711 whole entry): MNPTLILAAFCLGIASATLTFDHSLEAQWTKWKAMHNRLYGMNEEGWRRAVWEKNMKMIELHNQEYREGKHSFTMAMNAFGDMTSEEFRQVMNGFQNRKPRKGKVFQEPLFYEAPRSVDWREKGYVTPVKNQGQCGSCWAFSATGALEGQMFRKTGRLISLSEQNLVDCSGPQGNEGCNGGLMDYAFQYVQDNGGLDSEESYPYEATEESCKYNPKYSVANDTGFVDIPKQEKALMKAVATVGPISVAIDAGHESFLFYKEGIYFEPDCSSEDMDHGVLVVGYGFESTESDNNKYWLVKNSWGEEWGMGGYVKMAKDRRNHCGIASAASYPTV
smiles,measurement,setting,value
CC(C)C[C@H](NC(=O)OCc1ccccc1)C(=O)N[C@@H](C[C@@H]1CCNC1=O)C(=O)C(=O)NC1CC1,Ratio,[1],102.44
same,pEC50,SARS-CoV-2 [2],5.34
same,pKi,[3],7.44
C=CCn1ccc2c(C(=O)Oc3cncc(Cl)c3)cccc21,Ratio,[1],205.47
O=C(Oc1cncc(Cl)c1)c1cccc2c1CCN2,Ratio,[1],46.87
same,pKi,[4],5.67
CCC[C@H](NC(=O)[C@H](CC(C)C)NC(=O)OCc1ccccc1)C(=O)C(=O)NCc1ccccn1,pEC50,SARS-CoV-2 [5],6.11
CCOC(=O)/C=C/[C@H](C[C@@H]1CCNC1=O)NC(=O)[C@H](CC(C)C)NC(=O)[C@@H](NC(=O)OCc1ccccc1)[C@@H](C)OC(C)(C)C,pEC50,SARS-CoV-2 [6],5.54
O=C(CCl)N1N=C(c2cc(Cl)ccc2F)C(c2ccccc2)C1c1ccc2nccnc2c1 (centres undefined),pIC50,[7],7.85
C=CC(=O)N(c1ccc(C(C)(C)C)cc1)[C@H](C(=O)NCCc1cccc(F)c1)c1cccnc1,pKi,[4],4.42
O=c1c2ccccc2[se]n1Cc1ccc(Cl)cc1,pIC50,[8],6.08
same,pEC50,SARS-CoV-2 [9],5.75
CC(C)CCn1sc2ccc(Br)cc2c1=O,pIC50,[10],6.49
CC(C)C[C@H](NC(=O)[C@@H](NC(=O)OCc1ccccc1)[C@H](C)OC(C)(C)C)C(=O)N[C@H](C=O)C[C@@H]1CCNC1=O,pEC50,SARS-CoV-2 [11],6.51
same,pEC50,SARS-CoV-2 [12],5.60
same,pIC50,Procathepsin L,8.92
O=C[C@H](C[C@@H]1CCNC1=O)NC(=O)[C@@H]1[C@H]2CCC[C@H]2CN1C(=O)OCc1ccccc1,Ratio,[1],50.2
COc1cncc(Cn2[se]c3ccccc3c2=O)c1,pIC50,[8],6.33
same,pEC50,SARS-CoV-2 [9],5.50
COc1cccc(Cn2[se]c3ccccc3c2=O)c1,pIC50,[8],6.44
same,pEC50,SARS-CoV-2 [9],5.35
C[C@H](NC[C@@H](c1cccnc1)N(C(=O)C(Br)(Br)Br)c1ccc(-c2ccccc2)cc1)c1ccccc1,pEC50,SARS-CoV-2 [13],5.67
same,Ratio,[1],26.87
same,pIC50,[7],7.10
C[C@H](NC[C@@H](c1cccnc1)N(C(=O)C(Cl)Cl)c1ccc(-c2ccccc2)cc1)c1ccccc1,pEC50,SARS-CoV-2 [13],5.69
same,Ratio,[1],4.76
same,pIC50,[7],6.37
COc1ccc(-c2sc3n(c(NC(C)(C)C)c4[n+]3[C@H]3CC(=O)C=C[C@H]3OC4)c2-c2ccc(OC)cc2)cc1,pIC50,[14],4.68
CC(C)C[C@H](NC(=O)OCc1ccccc1)C(=O)N[C@@H](CC(C)C)C(=O)N[C@@H](C[C@@H]1CCNC1=O)C(=O)C(=O)NC1CC1,pEC50,SARS-CoV-2 [2],4.95
same,pKi,[3],7.89
O=C(N[C@@H](Cc1ccccc1)C(=O)N[C@@H](C[C@@H]1CCNC1=O)C(O)S(=O)(=O)[O-])OCc1ccccc1.[Na+] (some centres undefined),Ratio,[1],45.78
Cc1cccc(C(=O)Oc2c(C)cccc2C(=O)Oc2cncc(Cl)c2)c1O,pEC50,SARS-CoV-2 [15],4.62
O=C(c1cccc(Cn2[se]c3ccccc3c2=O)c1)N1CCOCC1,pIC50,[8],6.46
same,pEC50,SARS-CoV-2 [9],5.43
CC(C)C[C@H](NC(=O)OCc1cccc(C(F)(F)F)c1)C(=O)N[C@@H](C[C@@H]1CCNC1=O)C(O)S(=O)(=O)O (some centres undefined),pEC50,SARS-CoV-2 [16],8.22
CSCC[C@@H](C=O)NC(=O)[C@H](CC(C)C)NC(=O)[C@H](CC(C)C)NC(C)=O (Ac-Leu-Leu-Met-aldehyde),pEC50,SARS-CoV-2 [5],5.43
CCCC[C@@H](C=O)NC(=O)[C@H](CC(C)C)NC(=O)[C@H](CC(C)C)NC(C)=O (Ac-Leu-Leu-[Nle]-aldehyde),pIC50,[17],6.01
CC(C)(C)NC(=O)N[C@H](C(=O)N1C[C@H]2[C@@H]([C@H]1C(=O)NC(CC1CCC1)C(=O)C(N)=O)C2(C)C)C(C)(C)C (some centres undefined) [BOCEPREVIR],pEC50,SARS-CoV-2 [18],5.72
O=C1C=CC(=O)c2c(O)ccc(O)c21 [NAPHTHAZALIN],pIC50,[7],6.31
